Data on one molecule can be found in patent US20030203969A1, “Pharmaceutically active aromatic guanylhydrazones” (priority 2000, published 2003).

Molecules are shown by their SMILES.

For one series, the system named is HHV8. Nature of the series: HHV-8 replication in TPA-induced BCBL-1 cells (TaqMan PCR). The class given is cell-based, Human herpesvirus 8. On the procedure:
The human BCBL-1 cell line is available through the AIDS Reference and Reagent Program (Cat.No. 3233). This cell line was derived from a body cavity-based lymphoma latently infected with HHV-8. Culturing these cells in the presence of phorbol ester induces a lytic infection cycle, resulting in the release of viral particles into the medium. Compound efficacy in this proposed assay is determined using TaqMan PCR technology, and compound toxicity is measured by addition of Promega's Cell Titer Aqueous One Solution (metabolic dye).
7. BCBL-1 cells will be counted by the trypan blue dye exclusion method, and the cell count/ml will be determined. Cells will be pelleted by centrifugation and washed once with PBS to minimize the basal level of virus released from untreated cells which spontaneously enter the lytic cycle and release virus.
8. Cells will be resuspended in fresh media and adjusted to the appropriate cell density. Cells will then be plated in the interior wells of 96-well round-bottom microtiter plates in a volume of 50 μl per well.
9. […]
11. A standard curve prepared from known copy numbers of DNA isolated from BCBL-1 cells and amplified will be run with each plate in order to quantitate the DNA copy number in each original sample. The efficacy of the compound will be determined by comparing DNA copy numbers from test wells with those of control wells.
In general terms: Quantitative PCR measures a nucleic acid by following its amplification.

Another series concerns Vero cells. As to the method: A cytoprotection assay procedure using MTS is employed to evaluate compounds for antiviral activity against Respiratory Syncytial Virus (Long) in Vero (African green monkey, ATCC Cat. No. CCL-81) cells. The cells are pre-grown overnight at 37° C. (2×10^4/well in 96 well tissue culture plates) with 10% fetal Bovine serum containing Minimum Essential Medium. The positive control for the assay is Interferon-Gamma/Ribavirin. The infection medium contains reduced serum levels (2% FBS).
Using half log dilutions with high test starting at 100 μg/ml the drug dilutions are made and added to triplicate cultures in 0.1 ml volume and pre-titrated virus suspension is also added in 0.1 ml volume. […] CPE inhibition is determined by dye uptake procedure (Celltiter-MTS). […] The amount of soluble formazan produced by cellular reduction of the MTS is measured by the absorbance at 490 nm. The quantity of formazan product as measured by the amount of 490 nm absorbance is directly proportional to the number of living cells in the culture thus allowing the rapid quantitative analysis of the inhibition of virus-induced cell killing by the test substances. […]
The inhibitory drug concentration which reduces the viral replication by 95% (IC95) and the minimum drug concentration which inhibits cell growth by 95% (TC95) are calculated by using a regression analysis program for semilog curve fitting. […]

Regarding `CC(=NNC(=N)N)c1cc(NC(=O)CCCCCCCCC(=O)Nc2cc(C(C)=NNC(=N)N)cc(C(C)=NNC(=N)N)c2)cc(C(C)=NNC(=N)N)c1` [Compound 4, N,N′-bis (3,5-diacetylphenyl) decane diamide tetrakis (amidinohydrazone)], in the series with HHV8 (HHV8, BCBL-1 cells), the Comments entry is given as “Active”. Moreover, the IC50 (commonly the concentration needed to halve the response being measured) in the series on HHV8 (chronically HHV8-infected BCBL-1 cells) was found to be 2.3 µM. For the same molecule, in the series on Vero cells, the half-maximal cytotoxic concentration (CC50) (as a rule, the concentration giving 50% cytotoxicity) worked out at 8.68 µM and the “TC95” value stood at 30.20 µM.
